Data reported in patent US20190023733A1, “AMINE DERIVATIVES OF LUPANES WITH HIV MATURATION INHIBITORY ACTIVITY” (priority 2016, published 2019).
Structures can show the parent of a compound that is named as a salt.

Legend:
[1] = tested on: HIV-1 (strain IIIB); experiment: MT4 cell antiviral assay (as described in the method); assay type: cell-based; conditions: Human immunodeficiency virus 1, IIIB, control and standard in every assay, propidium iodide readout, read-out: expected range of IC50 values
Method: Antiviral HIV activity and compound-induced cytotoxicity were measured in parallel by means of a propidium iodide based procedure in the human T-cell lymphotropic virus transformed cell line MT4. Aliquots of the test compounds were serially diluted in medium (RPMI 1640, 10% fetal calf serum (FCS), and gentamycin) in 96-well plates (Costar 3598) using a Cetus Pro/Pette. Exponentially growing MT4 cells were harvested and centrifuged at 1000 rpm for 10 min in a Jouan centrifuge (model CR 4 12). Cell pellets were resuspended in fresh medium (RPMI 1640, 20% FCS, 20% IL-2, and gentamycin) to a density of 5×10^5 cells/ml. […]
For propidium iodide readout, 27 μl of 5% Nonidet-40 was added to each well of the incubation plate. […] The plates were analyzed in an automated assay instrument (Screen Machine, Idexx Laboratories). […]
For MTS readout, 20 μl CellTiter 96 AQ One Solution reagent (Promega #G3582) was added to each well. At 75 minutes following the addition of MTS reagent, absobance was read at 492 nm using a Tecan Sunrise 96-well plate reader. […]
For each assay plate, the results (relative fluorescence units, rfU, or OD values) of wells containing uninfected cells or infected cells with no compound were averaged, respectively. […] Percent of cells remaining is determined by the following formula: […]

[2] = tested on: HIV; conditions: cited from earlier work
[3] = tested on: HIV-1 NL4-3 wt; experiment: MT4 cell antiviral assay, NL4-3 wt; assay type: cell-based; conditions: Human immunodeficiency virus 1, NL43, 120 h; MT4 cells, 5 days, HIV-induced cytopathic effect
[4] = tested on: HIV-1 V370A; experiment: MT4 cell antiviral assay, V370A; assay type: cell-based; conditions: Human immunodeficiency virus 1, MT4, 120 h, read-out: EC50 V370A

SMILES	EC50 [3] [nM]	EC50 [4] [nM]	further results
Cc1cn([C@H]2C[C@H](N=[N+]=[N-])[C@@H](CO)O2)c(=O)[nH]c1=O [3′-azido-3′-deoxythymidine]	–	–	IC50 [1]: 40 to 120 nM
C=C(C)[C@@H]1CC[C@]2(C(=O)O)CC[C@]3(C)[C@H](CC[C@@H]4[C@@]5(C)CC[C@H](OC(=O)CC(C)(C)C(=O)O)C(C)(C)[C@@H]5CC[C@]43C)[C@@H]12 [Bevirimat]	–	–	mean reduction of HIV viral load ([2]; patients with trough levels >=20 μg/mL and no key baseline Gag polymorphisms at Q369, V370 or T371): 1.3 log10/mL; viral load reduction versus patients without Gag polymorphisms ([2]; users with Gag polymorphisms at Q369, V370 or T371): significantly lower load reductions
CC(C)C1=C2[C@H]3CC[C@@H]4[C@@]5(C)CC=C(C6=CCC(C(=O)O)CC6)C(C)(C)[C@@H]5CC[C@@]4(C)[C@]3(C)CC[C@@]2(NCCN2CCC(S(C)(=O)=O)CC2)CC1=O (stereo partly drawn) [Example 1, 4-((3aR,5aR,5bR,7aR,11aS,11bR,13aS)-1-Isopropyl-5a,5b,8,8,11a-pentamethyl-3a-((2-(4-(methylsulfonyl)piperidin-1-yl)ethyl)amino)-2-oxo-3,3a,4,5,5a,5b,6,7,7a,8,11,11a,11b,12,13,13a-hexadecahydro-2H-cyclopenta[a]chrysen-9-yl)cyclohex-3-enecarboxylic acid]	99	352	–
CC(C)C1=C2[C@H]3CC[C@@H]4[C@@]5(C)CC=C(C6=CCC(C(=O)O)CC6)C(C)(C)[C@@H]5CC[C@@]4(C)[C@]3(C)CC[C@@]2(NCCN2CCS(=O)(=O)CC2)CC1=O (stereo partly drawn) [Example 2, 4-((3aR,5aR,5bR,7aR,11aS,11bR,13aS)-3a-((2-(1,1-Dioxidothiomorpholino)ethyl)amino)-1-isopropyl-5a,5b,8,8,11a-pentamethyl-2-oxo-3,3a,4,5,5a,5b,6,7,7a,8,11,11a,11b,12,13,13a-hexadecahydro-2H-cyclopenta[a]chrysen-9-yl)cyclohex-3-enecarboxylic acid]	8	18	–
CC(C)C1=C2[C@H]3CC[C@@H]4[C@@]5(C)CC=C(C6=CCC(C(=O)O)CC6)C(C)(C)[C@@H]5CC[C@@]4(C)[C@]3(C)CC[C@@]2(NCCN(CCN(C)C)Cc2ccc(Cl)cc2)CC1=O (stereo partly drawn) [Example 3, 4-((3aR,5aR,5bR,7aR,11aS,11bR,13aS)-3a-((2-((4-Chlorobenzyl)(2-(dimethylamino)ethyl)amino)ethyl)amino)-1-isopropyl-5a,5b,8,8,11a-pentamethyl-2-oxo-3,3a,4,5,5a,5b,6,7,7a,8,11,11a,11b,12,13,13a-hexadecahydro-2H-cyclopenta[a]chrysen-9-yl)cyclohex-3-enecarboxylic acid]	11	42	–
CC(C)C1=C2[C@H]3CC[C@@H]4[C@@]5(C)CC=C(c6ccc(C(=O)O)cc6)C(C)(C)[C@@H]5CC[C@@]4(C)[C@]3(C)CC[C@@]2(NCCN(CCN(C)C)Cc2ccc(Cl)cc2)CC1=O [Example 4, 4-((3aR,5aR,5bR,7aR,11aS,11bR,13aS)-3a-((2-((4-Chlorobenzyl)(2-(dimethylamino)ethyl)amino)ethyl)amino)-1-isopropyl-5a,5b,8,8,11a-pentamethyl-2-oxo-3,3a,4,5,5a,5b,6,7,7a,8,11,11a,11b,12,13,13a-hexadecahydro-2H-cyclopenta[a]chrysen-9-yl)benzoic acid hydrochloride salt]	29	–	–
CC(C)C1=C2[C@H]3CC[C@@H]4[C@@]5(C)CC=C(c6ccc(C(=O)O)cc6)C(C)(C)[C@@H]5CC[C@@]4(C)[C@]3(C)CC[C@@]2(NCCN2CCS(=O)(=O)CC2)CC1=O [Example 5, 4-((3aR,5aR,5bR,11aS)-3a-((2-(1,1-Dioxidothiomorpholino)ethyl)amino)-1-isopropyl-5a,5b,8,8,11a-pentamethyl-2-oxo-3,3a,4,5,5a,5b,6,7,7a,8,11,11a,11b,12,13,13a-hexadecahydro-2H-cyclopenta[a]chrysen-9-yl)benzoic acid hydrochloride]	30	776	–
CC(C)C1=C2C3CCC4[C@@]5(C)CC=C(c6ccc(C(=O)O)cc6)C(C)(C)C5CC[C@@]4(C)[C@]3(C)CC[C@@]2(NC(=O)CN2CCS(=O)(=O)CC2)CC1=O (stereo partly drawn) [Example 6, 4-((3aR,5aR,5bR,11aS)-3a-(2-(1,1-Dioxidothiomorpholino)acetamido)-1-isopropyl-5a,5b,8,8,11a-pentamethyl-2-oxo-3,3a,4,5,5a,5b,6,7,7a,8,11,11a,11b,12,13,13a-hexadecahydro-2H-cyclopenta[a]chrysen-9-yl)benzoic acid hydrochloride salt]	159	–	–
CC(C)C1=C2C3CCC4[C@@]5(C)CC=C(c6ccc(C(=O)O)cc6)C(C)(C)C5CC[C@@]4(C)[C@]3(C)CC[C@@]2(NC(=O)N(CCN(C)C)Cc2ccc(Cl)cc2)CC1=O (stereo partly drawn) [Example 7, 4-((3aR,5aR,5bR,11aS)-3a-(3-(4-chlorobenzyl)-3-(2-(dimethylamino)ethyl)ureido)-1-isopropyl-5a,5b,8,8,11a-pentamethyl-2-oxo-3,3a,4,5,5a,5b,6,7,7a,8,11,11a,11b,12,13,13a-hexadecahydro-2H-cyclopenta[a]chrysen-9-yl)benzoic acid]	6.3	–	–
CC(C)C1=C2C3CCC4[C@@]5(C)CC=C(c6ccc(C(=O)O)cc6)C(C)(C)C5CC[C@@]4(C)[C@]3(C)CC[C@@]2(NC(=O)CN(CCN(C)C)Cc2ccc(Cl)cc2)CC1=O (stereo partly drawn) [Example 8, 4-((3aR,5aR,5bR,11aS)-3a-(2-((4-chlorobenzyl)(2-(dimethylamino)ethyl)amino)acetamido)-1-isopropyl-5a,5b,8,8,11a-pentamethyl-2-oxo-3,3a, 4,5,5a,5b,6,7,7a,8,11,11a,11b,12,13,13a-hexadecahydro-2H-cyclopenta[a]chrysen-9-yl)benzoic acid]	2	8	–
